Experiments:
[1] = test system: TNF-α production in LPS stimulated THP-1 cells; assay: Inhibition of TNF-α production in LPS stimulated THP-1 cells (ELISA); assay type: cell-based, human; details: screen 2, mean relative secretion, basal = 0%; for TNF-α at 4 μM peptide / TNF-α at 10 μM peptide: stimulated = 100%; for TNF-α at 40 μM peptide: LPS-stimulated level without peptide = 100%
Procedure: (§1) After 6 hours of incubation at +37° C., 5% CO2 and in a humid atmosphere, the cell supernatants were collected, centrifuged and kept frozen in −20° C. until analyzed for TNF-α content by ELISA (R&D Systems, Minneapolis, Minn., USA). The results are presented as mean relative secretion (%), with stimulated TNF-α level without peptide added set to 100% and basal secretion set to 0% (Table 2).
as §1, with “incubation,” for “incubation at +37° C., 5% CO2 and in a humid atmosphere,”, “centrifuged,” for “centrifuged”, “5).” for “2).”

[2] = test system: MRSA (CCUG 41879); assay: MMC99 assay, MRSA; assay type: cell-based
Procedure: (§2) The antimicrobial effects of the peptides 232 (SEQ ID NO: 78), and 220 (SEQ ID NO:67) were analysed by MMC99 (minimal microbicidal concentration) assay against S. aureus (CCUG 1800), MRSA (CCUG 41879), P. aeruginosa (ATCC 15442), E. coli (CCUG 31246), S. pyogenes (CCUG 4207), P. acnes (CCUG 1794T), S. epidermidis (ATCC12228), K. pneumoniae (ATCC 13883), A. baumannii (ATCC 19606), and C. albicans (ATCC 64549). The peptides were purchased from Biopeptide Company (San Diego, Calif., USA) and Bachem AG (Bubendorf, Switzerland) and results are presented in Table 8A and 8B respectively.
(§3) Peptides were serially diluted in two different assay medium, 1% BHI medium (brain-heart infusion medium) or 50% heat inactivated simulated wound fluid (SWF), and thereafter incubated with the microorganisms for 2 hours. Drops of the suspension were placed on blood agar plates. The MMC99 values, i.e. the lowest peptide concentration needed to achieve a 99% reduction of viable microorganisms, were recorded. As presented in Table 8, all the peptides have the ability to kill microorganisms frequently appearing in infections.

[3] = test system: P. aeruginosa (ATCC 15442); assay: MMC99 assay, P. aeruginosa; assay type: cell-based
Procedure: as §2, §3

[4] = test system: E. coli (CCUG 31246); assay: MMC99 assay, E. coli; assay type: cell-based
Procedure: as §2, §3

[5] = test system: A. baumannii (ATCC 19606); assay: MMC99 assay, A. baumannii; assay type: cell-based
Procedure: as §2, §3

[6] = test system: S. epidermidis (ATCC12228); assay: MMC99 assay, S. epidermidis; assay type: cell-based
Procedure: as §2, §3

[7] = test system: C. albicans (ATCC 64549); assay: MMC99 assay, C. albicans; assay type: cell-based
Procedure: as §2, §3

[8] = test system: K. pneumoniae (ATCC 13883); assay: MMC99 assay, K. pneumoniae; assay type: cell-based
Procedure: as §2, §3

Sequence	TNF-α at 4 μM peptide [1]	TNF-α at 10 μM peptide [1]	TNF-α at 40 μM peptide [1]	MMC99 ([2]; 1% BHI)	MMC99 ([2]; 50% SWF)	MMC99 ([3]; 1% BHI)	MMC99 ([3]; 50% SWF)	MMC99 ([4]; 1% BHI)	MMC99 ([4]; 50% SWF)	MMC99 ([5]; 1% BHI)	MMC99 ([5]; 50% SWF)	MMC99 ([6]; 1% BHI)	MMC99 ([6]; 50% SWF)	MMC99 ([7]; 1% BHI)	MMC99 ([7]; 50% SWF)	MMC99 ([8]; 1% BHI)	MMC99 ([8]; 50% SWF)
QSLARKLFQWLRNLRKVA [Peptide 220]	70.8%	37.0%	11.6%	6 µg/mL	200 µg/mL	7 µg/mL	>200 µg/mL	3 µg/mL	>200 µg/mL								
RRLWRRWMRKVL [Peptide 232]	96.9%	66.6%	33.2%	6 µg/mL	100 µg/mL	5 µg/mL	>176 µg/mL	5 µg/mL	>176 µg/mL	3 µg/mL	200 µg/mL	3 µg/mL	50 µg/mL	3 µg/mL	50 µg/mL	6 µg/mL	>200 µg/mL

Reference: patent US20140031296A1, “NEW SYNTHETIC PEPTIDES AND THEIR USE” (PERGAMUM AB, priority 2011, published 2014)
